{
  "source": "paper PMC9232612",
  "about": "“A phase 1b randomised controlled trial of a glucagon-like peptide-1 and glucagon receptor dual agonist IBI362 (LY3305677) in Chinese patients with type 2 diabetes” (Nature Communications, 2022)",
  "assay_type_in_all_cases": "in vivo, human",
  "key": {"[1]": {"tested_on": "Chinese patients with T2D", "experiment": "Fasting plasma glucose (FPG)", "conditions": "MMRM; for Change from baseline in fasting plasma glucose, LS mean / Change from baseline in fasting plasma glucose, LS mean (SE): n=8; for Change from baseline in fasting plasma glucose, LS mean (SE) / Fasting plasma glucose: ETD versus placebo, LS mean (90% CI): week 12", "experimental": "(§1) HbA1c (2200101, Bio-Rad, USA), blood glucose (05168791190, Roche Diagnostics, Germany), insulin (12017547122, Roche Diagnostics, Germany), C peptide (03184897190, Roche Diagnostics, Germany), total GLP-1 (GLP-1 [7–36] amide and its metabolite, GLP-1 [9–36] amide, 10-1278-01, Mercodia AB, Sweden) and OXM (AL-139, AnshLabs, USA) tests were performed according to the manufactures’ instruction manuals in a central laboratory (KingMed Diagnostics, Guangzhou, China). HbA1c was measured using a Bio-rad D-100 Haemoglobin Testing System (Bio-rad). Blood glucose was measured using a Roche Cobas c702 analyser (Roche Diagnostics). Insulin and C peptide were measured using a Roche […] analyser (Roche Diagnostics). GLP-1 and OXM were measured using a Tecan Infinite M Plex microplate reader (TECAN).\n(§2) Standard non-compartmental pharmacokinetics methods were used to analyze IBI362 plasma concentration data using Pkanalix 2020R1 (Lixoft, Antony, France). Secondary efficacy outcomes included change from baseline to week 12 in HbA1c, fasting plasma glucose (FPG), fasting insulin levels, change from baseline to week 12 in post-mixed-meal tolerance test (post-MTT) glucose, insulin, C peptide, GLP-1 and OXM levels, as well as seven-point self-measured blood glucose (SMBG) profile.\nThe analyses for change from baseline in HbA1c, FPG, post-MTT glucose AUC0–4 h and body weight were performed using the mixed-effect model for repeated measures (MMRM) with least-squares means and standard error provided. The MMRM included the corresponding baseline value, treatment, visit and treatment-by-visit as fixed effects and patient as a random effect. Mean change or mean percent change from baseline were analysed using a restricted maximum likelihood (REML)‐based repeated measures approach in combination with the Newton Raphson Algorithm. The fix effect of visit was fitted as a repeated effect and an unstructured covariance matrix was used. In case of non-converge, matrix like Variance Components and Compound Symmetry will be tested in a subsequent order until model‐convergence is achieved. The Kenward-Roger degree of freedom was used in estimating fixed effects. No missing data imputation was conducted. For HbA1c, FPG and body weight, point estimate of treatment difference versus placebo and 90% CI were provided for each IBI362 dose group and the dulaglutide group, with nominal p values."}, "[2]": {"tested_on": "Chinese patients with T2D", "experiment": "Mixed-meal tolerance test (MTT): insulin", "experimental": "as §1\nas §2, with “profile. […]” for “profile.”\n3. Standard meal test (MTT) collection measures included: insulin, C-peptide, plasma glucose, glucagon, endogenous OXM, and endogenous GLP-1. The sampling points include: fasting, 30 min, 1h, 2h, 3h and 4h.\nA total of 9 mL blood will be collected from each blood collection point. See the manual of the central laboratory for the detailed operation process. Fasting state refers to fasting for 10 hours. [ The standard meal is\ninstant noodles. The master Kang roast beef noodles (bucket noodles) purchased by the sponsor in a unified manner are removed from the oil bag. The noodles are soaked in boiled water and then removed. The seasoning\nbag is added and mixed well. The time is counted from the first bite of eating. The noodles are eaten within 10 minutes, and 200 mL of water is drunk; or the instant noodles are directly opened with 200 mL of boiled\nwater to ensure that the noodles are eaten and the water or soup is drunk]. Visit days when MTT test is performed: 1 day prior to Cycle 1 administration, Day 80 (D80). […]\n● Test by central laboratory"}, "[3]": {"tested_on": "Chinese patients with T2D", "experiment": "Lipids (total cholesterol, LDL cholesterol, triglycerides)", "conditions": "mean", "experimental": "Fig. S8: Change from baseline in lipids levels at week 12.\nData are plotted as means +/- SD. IBI362 3.0 mg n = 7; IBI362 4.5 mg n = 5; IBI362 6.0 mg n = 8; Pooled placebo n = 10; Dulaglutide n = 6. CFB = change from baseline; LDL = low density lipoprotein; SD = standard deviation. Source data are provided as a Source Data file.\nTotal cholesterol LDL cholesterol Triglycerides\nCFB in lipids at week 12 (mmol/L),\n(1 picture or pasted object on this page, not shown here) […]\nTable 4 Routine laboratory safety assessments […]\nLipids Total cholesterol (TC), triglyceride (TG), high-density lipoprotein cholesterol (HDL-C), and low-density lipoprotein cholesterol (LDL-C). […]"}},
  "note": "Where “and” joins values, the source holds several entries; their conditions need not be identical. Identical values can stand only once.",
  "data": [
    {"compound": "CC(C)C[C@H](NC(=O)[C@H](CC(C)C)NC(=O)[C@H](Cc1c[nH]c2ccccc12)NC(=O)[C@H](CCC(=O)O)NC(=O)[C@@H](NC(=O)[C@H](Cc1ccccc1)NC(=O)[C@H](CCC(=O)O)NC(=O)[C@H](CCCCNC(=O)COCCOCCNC(=O)COCCOCCNC(=O)CC[C@H](NC(=O)CCCCCCCCCCCCCCCCCCC(=O)O)C(=O)O)NC(=O)[C@H](C)NC(=O)[C@H](CCCCN)NC(=O)[C@H](CCCCN)NC(=O)[C@H](CCC(=O)O)NC(=O)[C@H](CC(=O)O)NC(=O)[C@H](CC(C)C)NC(=O)[C@H](Cc1ccc(O)cc1)NC(=O)[C@H](CCCCN)NC(=O)[C@H](CO)NC(=O)[C@H](Cc1ccc(O)cc1)NC(=O)[C@H](CC(=O)O)NC(=O)[C@H](CO)NC(=O)[C@@H](NC(=O)[C@H](Cc1ccccc1)NC(=O)[C@@H](NC(=O)CNC(=O)[C@H](CCC(N)=O)NC(=O)C(C)(C)NC(=O)[C@@H](N)Cc1c[nH]cn1)[C@@H](C)O)[C@@H](C)O)C(C)C)C(=O)N[C@@H](CCC(=O)O)C(=O)NCC(=O)NCC(=O)N1CCC[C@H]1C(=O)N[C@@H](CO)C(=O)N[C@@H](CO)C(=O)NCC(N)=O", "note": "[IBI362]", "values": [
      {"measurement": "Change from baseline in fasting plasma glucose, LS mean", "setting": "[1]; week 4, 4.5 mg cohort", "result": -2.47, "unit": "mmol/L"},
      {"measurement": "Change from baseline in fasting plasma glucose, LS mean", "setting": "[1]; week 4, 6.0 mg cohort", "result": -3.03, "unit": "mmol/L"},
      {"measurement": "Change from baseline in fasting plasma glucose, LS mean", "setting": "[1]; week 8, 3.0 mg cohort", "result": -2.95, "unit": "mmol/L"},
      {"measurement": "Change from baseline in fasting plasma glucose, LS mean", "setting": "[1]; week 8, 4.5 mg cohort", "result": -3.38, "unit": "mmol/L"},
      {"measurement": "Change from baseline in fasting plasma glucose, LS mean", "setting": "[1]; week 8, 6.0 mg cohort", "result": -3.50, "unit": "mmol/L"},
      {"measurement": "Change from baseline in fasting plasma glucose, LS mean (SE)", "setting": "[1]; 3.0 mg cohort", "result": "−3.38 (0.49) mmol/L and −3.38 mmol/L"},
      {"measurement": "Fasting plasma glucose: ETD versus placebo, LS mean (90% CI)", "setting": "[1]; 3.0 mg cohort", "result": -0.85, "unit": "mmol/L"},
      {"measurement": "Change from baseline in fasting plasma glucose, LS mean (SE)", "setting": "[1]; 4.5 mg cohort", "result": -3.82, "unit": "mmol/L"},
      {"measurement": "Fasting plasma glucose: ETD versus placebo, LS mean (90% CI)", "setting": "[1]; 4.5 mg cohort", "result": -1.30, "unit": "mmol/L"},
      {"measurement": "Change from baseline in fasting plasma glucose, LS mean (SE)", "setting": "[1]; 6.0 mg cohort", "result": -4.07, "unit": "mmol/L"},
      {"measurement": "Insulin during MTT, mean", "setting": "[2]; week 12, 0 min, 3.0 mg cohort, n=7", "result": 9.22, "unit": "μU/mL"},
      {"measurement": "Insulin during MTT, mean", "setting": "[2]; week 12, 0 min, 4.5 mg cohort, n=5", "result": 13.41, "unit": "μU/mL"},
      {"measurement": "Insulin during MTT, mean", "setting": "[2]; week 12, 0 min, 6.0 mg cohort, n=8", "result": 13.25, "unit": "μU/mL"},
      {"measurement": "Insulin during MTT, mean", "setting": "[2]; week 12, 30 min, 3.0 mg cohort, n=7", "result": 17.47, "unit": "μU/mL"},
      {"measurement": "Insulin during MTT, mean", "setting": "[2]; week 12, 30 min, 4.5 mg cohort, n=5", "result": 22.16, "unit": "μU/mL"},
      {"measurement": "Insulin during MTT, mean", "setting": "[2]; week 12, 30 min, 6.0 mg cohort, n=8", "result": 22.08, "unit": "μU/mL"},
      {"measurement": "Insulin during MTT, mean", "setting": "[2]; week 12, 60 min, 3.0 mg cohort, n=7", "result": 34.23, "unit": "μU/mL"},
      {"measurement": "Insulin during MTT, mean", "setting": "[2]; week 12, 60 min, 4.5 mg cohort, n=5", "result": 41.02, "unit": "μU/mL"},
      {"measurement": "Insulin during MTT, mean", "setting": "[2]; week 12, 60 min, 6.0 mg cohort, n=8", "result": 41.49, "unit": "μU/mL"},
      {"measurement": "Insulin during MTT, mean", "setting": "[2]; week 12, 120 min, 3.0 mg cohort, n=7", "result": 57.20, "unit": "μU/mL"},
      {"measurement": "Insulin during MTT, mean", "setting": "[2]; week 12, 120 min, 4.5 mg cohort, n=5", "result": 45.65, "unit": "μU/mL"},
      {"measurement": "Insulin during MTT, mean", "setting": "[2]; week 12, 120 min, 6.0 mg cohort, n=8", "result": 64.69, "unit": "μU/mL"},
      {"measurement": "Insulin during MTT, mean", "setting": "[2]; week 12, 180 min, 3.0 mg cohort, n=7", "result": 39.93, "unit": "μU/mL"},
      {"measurement": "Insulin during MTT, mean", "setting": "[2]; week 12, 180 min, 4.5 mg cohort, n=5", "result": 50.30, "unit": "μU/mL"},
      {"measurement": "Insulin during MTT, mean", "setting": "[2]; week 12, 180 min, 6.0 mg cohort, n=8", "result": 46.96, "unit": "μU/mL"},
      {"measurement": "Insulin during MTT, mean", "setting": "[2]; week 12, 240 min, 3.0 mg cohort, n=7", "result": 23.01, "unit": "μU/mL"},
      {"measurement": "Insulin during MTT, mean", "setting": "[2]; week 12, 240 min, 4.5 mg cohort, n=5", "result": 25.01, "unit": "μU/mL"},
      {"measurement": "Insulin during MTT, mean", "setting": "[2]; week 12, 240 min, 6.0 mg cohort, n=8", "result": 24.25, "unit": "μU/mL"},
      {"measurement": "Change from baseline to week 12 in LDL cholesterol", "setting": "[3]; IBI362 3.0 mg", "result": -0.33, "unit": "mmol/L"},
      {"measurement": "Change from baseline to week 12 in total cholesterol", "setting": "[3]; IBI362 3.0 mg", "result": -0.71, "unit": "mmol/L"},
      {"measurement": "Change from baseline to week 12 in triglycerides", "setting": "[3]; IBI362 3.0 mg", "result": -0.83, "unit": "mmol/L"},
      {"measurement": "Change from baseline to week 12 in LDL cholesterol", "setting": "[3]; IBI362 4.5 mg", "result": -1.15, "unit": "mmol/L"},
      {"measurement": "Change from baseline to week 12 in total cholesterol", "setting": "[3]; IBI362 4.5 mg", "result": -1.68, "unit": "mmol/L"},
      {"measurement": "Change from baseline to week 12 in triglycerides", "setting": "[3]; IBI362 4.5 mg", "result": -0.23, "unit": "mmol/L"},
      {"measurement": "Change from baseline to week 12 in LDL cholesterol", "setting": "[3]; IBI362 6.0 mg", "result": -0.90, "unit": "mmol/L"},
      {"measurement": "Change from baseline to week 12 in total cholesterol", "setting": "[3]; IBI362 6.0 mg", "result": -1.17, "unit": "mmol/L"},
      {"measurement": "Change from baseline to week 12 in triglycerides", "setting": "[3]; IBI362 6.0 mg", "result": -0.66, "unit": "mmol/L"}
    ]}
  ]
}
